This is an account of results in PMC5766630, “Non-estrogenic Xanthohumol Derivatives Mitigate Insulin Resistance and Cognitive Impairment in High-Fat Diet-induced Obese Mice” (Scientific Reports, 2018).

Structures are written as SMILES.

In data set [1] the target is T1, full-length purified human estrogen receptor ERα (Homo sapiens, UniProt P03372).
T1 construct: full-length purified human estrogen receptors ERα and ERβ
T1 sequence (P03372 1-595): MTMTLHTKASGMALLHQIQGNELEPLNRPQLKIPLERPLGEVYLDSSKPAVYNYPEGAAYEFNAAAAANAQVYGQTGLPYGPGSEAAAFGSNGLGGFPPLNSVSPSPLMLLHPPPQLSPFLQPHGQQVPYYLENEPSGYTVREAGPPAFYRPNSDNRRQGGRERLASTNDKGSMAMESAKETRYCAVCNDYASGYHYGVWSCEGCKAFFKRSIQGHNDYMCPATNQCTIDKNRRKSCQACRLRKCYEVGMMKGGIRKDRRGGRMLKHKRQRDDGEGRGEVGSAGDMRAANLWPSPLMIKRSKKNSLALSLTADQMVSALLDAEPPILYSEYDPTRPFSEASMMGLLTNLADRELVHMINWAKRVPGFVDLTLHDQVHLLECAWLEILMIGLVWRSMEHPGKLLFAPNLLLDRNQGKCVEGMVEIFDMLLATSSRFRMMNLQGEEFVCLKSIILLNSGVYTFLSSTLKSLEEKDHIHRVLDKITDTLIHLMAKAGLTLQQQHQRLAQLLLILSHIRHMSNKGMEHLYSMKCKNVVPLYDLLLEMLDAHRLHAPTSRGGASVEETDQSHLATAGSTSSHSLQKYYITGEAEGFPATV
Kind of data set: ERα competitive radiometric binding assay. The note with it: for RBA ERα (relative binding affinity): RBA = IC50[estradiol]/IC50[compound] × 100, estradiol = 100, 2 nM [3H]-estradiol tracer, 18–24 h at 0 °C. Here is the method:
The receptors and ligands were incubated for 18–24 h at 0 °C and then the receptor–ligand complexes separated using hydroxyapatite (BioRad, Hercules, CA, USA).

Data set [2] has as its system progesterone receptor (PGR) expression in MCF-7 cells. Briefly: Progesterone receptor (PGR) gene expression in MCF-7 cells, real-time PCR. The note with it: 20 h; estradiol 1 and 10 nM; 8-PN, XN, DXN, TXN 0.2, 1 and 5 μM; vs 0.1% ethanol. In kind it is cell-based, human. As for the experimental part: MCF-7 cells (American Type Culture Collection, Manassas, VA, USA) were cultured in DMEM (Corning Life Sciences, Tewksbury, MA, USA) supplemented with 10% fetal bovine serum (Corning Life Sciences) and 100 μg/ml penicillin/streptomycin (Invitrogen, Carlsbad, CA, USA). For estrogen-free experiments, cells were seeded in phenol-free DMEM (Gibco/Life Technologies, Grand Island, NY, USA) plus 10% charcoal-dextran-treated FBS (Corning Life Sciences) at 5 × 10^5 cells/well of a 6-well plate. […] Total RNA was isolated using TRIzol (Invitrogen) and converted into cDNA using iScript (Bio-Rad, Hercules, CA, USA). Real-time PCR was performed in triplicate on a CFX-96 (Bio-Rad) using primer-probe assays (IDT Technologies, Coralville, IA, USA) and SsoAdvanced Universal Probes Supermix (Bio-Rad) to quantify progesterone receptor (PGR) and GAPDH levels. The ratio of PGR to GAPDH was calculated as 2^−ΔCt PGR/2^−ΔCt GAPDH. Data were analyzed using a one-way ANOVA (p < 0.05 was considered statistically significant) and a post-hoc Tukey’s multiple comparison test. Induction of the progesterone receptor in MCF-7 cells is one of the indices of estrogenicity of flavonoids such as 8-PN[94].
A general note: Real-time PCR tracks product formation cycle by cycle.

The test system of the next data set is MCF-7 cells. Briefly: MCF-7 cell proliferation, sulforhodamine B (SRB) assay. In kind it is cell-based, human. The note with it: 0.001–1 µM, 48 h exposure, vs vehicle control. Here is the method: The SRB assay has been used to study the effects of phytochemicals such as XN, DXN and 8-PN on cell proliferation of various cancer cell lines, including MCF-7 cells[91],[92]. SRB is a dye that binds to cellular proteins of adherent cells and the absorbance readings are a measure of the number of viable cells (cell mass) attached to the culture plate after incubation with the test compounds (samples) in comparison with vehicle control cells. The cell mass is then extrapolated as a measurement of cell viability and cell proliferation. Increased proliferation of MCF-7 cells is one of the measures of estrogenicity of phytochemicals. MCF-7 cells were plated at 10,000 cells/well in 96-well plates in DMEM medium containing 10% charcoal-stripped FBS and antibiotics. […] After incubation with the test compounds for 48 h, the cell culture medium was removed from each well of the 96-well plate and the cells were fixed for 1 h with 10% trichloroacetic acid. The cells on the plate were washed five with distilled water, air-dried, and then stained with SRB dye (0.4% w/v in 1% acetic acid). Excess dye was removed by washing the plate five times with 1% acetic acid. The plates were air-dried and the adsorbed dye was solubilized in 10 mM Tris buffer for 5 min on a shaker before reading the optical density (OD) at 565 nm. The percentage cell viability/proliferation was calculated as follows: (ODSample−ODZeroblank)/(ODControl−ODZeroblank)×100. Mean values and the coefficient of variation (CV) from six replicate wells were calculated and a one-way ANOVA was used to compare statistical differences between treated and control cells, with p < 0.05 as the level of significance.
On the technique in general: In SRB staining, fixed cells bind dye roughly in proportion to their protein.

For data set [3], the target named is T2, full-length purified human estrogen receptor ERβ (Homo sapiens, UniProt Q92731).
T2 construct: full-length purified human estrogen receptors ERα and ERβ
T2 sequence (Q92731 whole entry): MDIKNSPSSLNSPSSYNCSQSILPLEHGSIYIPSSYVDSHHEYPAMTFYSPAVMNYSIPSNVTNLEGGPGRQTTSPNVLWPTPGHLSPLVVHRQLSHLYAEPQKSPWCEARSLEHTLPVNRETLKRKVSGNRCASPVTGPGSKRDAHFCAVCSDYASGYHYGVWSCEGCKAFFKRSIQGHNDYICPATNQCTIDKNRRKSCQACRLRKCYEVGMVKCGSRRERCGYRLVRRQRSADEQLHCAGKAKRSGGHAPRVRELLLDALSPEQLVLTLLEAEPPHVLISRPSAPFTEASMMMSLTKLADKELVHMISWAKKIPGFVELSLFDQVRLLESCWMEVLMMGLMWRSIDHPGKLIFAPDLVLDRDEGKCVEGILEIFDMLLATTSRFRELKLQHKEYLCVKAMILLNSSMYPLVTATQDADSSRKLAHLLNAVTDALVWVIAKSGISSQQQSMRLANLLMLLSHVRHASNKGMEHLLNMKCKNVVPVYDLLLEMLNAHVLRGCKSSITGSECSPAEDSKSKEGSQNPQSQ
Briefly: ERβ competitive radiometric binding assay. Particulars: for RBA ERβ (relative binding affinity): RBA = IC50[estradiol]/IC50[compound] × 100, estradiol = 100, 2 nM [3H]-estradiol tracer, 18–24 h at 0 °C. Here is the method: . The receptors and ligands were incubated for 18–24 h at 0 °C and then the receptor–ligand complexes separated using hydroxyapatite (BioRad, Hercules, CA, USA). […]

A further data set has as its system C2C12 cells. Briefly: Seahorse OCR and ECAR measurements (mitochondrial uncoupling). In kind it is cell-based, mouse. Particulars: oligomycin 1 μM, C2C12 cells. Here is the method: OCR and ECAR measurements were performed with a Seahorse XF 24 Analyzer (Agilent Technologies, Inc., Santa Clara, CA, USA). C2C12 cells were plated in culture medium at a density of 40,000 cells per well in a 24-well plate. The cells were then allowed to adhere for 24 h (37 °C, 5% CO2). Prior to the assay, the cells were washed with freshly prepared running medium consisting of Seahorse XF Assay medium (Agilent Technologies, Inc., Santa Clara, CA, USA), 10 mM glucose and 1 mM sodium pyruvate. The pH of the medium was adjusted to 7.4 with 1 M NaOH. The cells were then equilibrated for one hour at 37 °C without CO2. […] To overcome this problem, the test compounds were first dissolved in ethanol and the resulting solution was diluted 100-fold in treatment medium (9 parts XF media and 1 part 10% FBS media) which was added directly to cells. The treatment medium contained 1% FBS and after a further 10-fold dilution into the media in wells, only 0.1% FBS was present during OCR and ECAR measurements. The final concentrations in the wells were: 1 μM for oligomycin, and 5 μM for XN, DXN or TXN. The concentration of oligomycin and the cell density used were selected based on preliminary experiments. Ethanol was added to the control wells not to exceed a final concentration of 0.1% (vehicle control). OCR and ECAR were measured at 9-min intervals.
Seahorse data: to show a consistent baseline, OCR values (in pmol/min/mg protein) and ECAR values (in mpH/min/mg protein) for each value were divided, prior to statistical analysis, by the average of the four pre oligomycin treatment values (0, 8, 17, and 25 min) for the corresponding well and are shown as % pre oligomycin values. To account for repeated measures within wells over time, we utilized a repeated-measures-in-time design using ANOVA procedures in PROC MIXED (SAS). Fixed effects in the model were treatment (control, 5 μM XN, 5 μM DXN, and 5 μM TXN for the compound study), time (0, 8, 17, 25, 34, 43, 52, 60, 69, 78, 86, and 95 min), and their interaction. The random effect was the experiment (5 experiments for the compound study). To account for repeated measures within wells over time, a first order homogeneous variance-covariance matrix [AR(1)] was fitted for each well. Using the ESTIMATE statement, a priori contrasts were constructed by comparing the changes in compound treated cells from the last two time points prior to compound treatment (average 52 and 60 min) to the changes in control cells during the same time-period. This was carried out for each compound and dosage for 69, 78, 86, and 95 min separately and for all four time points combined. Results are shown in the text and the graphs as least squares means and their corresponding SEM (standard error of mean). […]

On the set-up of data set [4]: method as in PMID 17517853, PMID 20154334. The note with it: meta-analysis of 42 trials, p = 0.03; cited from earlier work.

With `CC(C)=CCc1c(O)cc(O)c2c1O[C@H](c1ccc(O)cc1)CC2=O` [8-PN, 8-prenylnaringenin, reference compound], in data set [1], the “fold greater affinity for ERα compared to XN, DXN, and TXN” value is listed as > 100 fold; the “RBA ERα (relative binding affinity)” value was 0.686 ± 0.18. Besides, in data set [2], the “induction of PGR expression” value is recorded as “statistically significant induction”. For the same compound, the “MCF-7 cell viability/proliferation at low concentrations” value in the data set on MCF-7 cells is “induced cell proliferation”. In data set [3], the “fold greater affinity for ERβ compared to XN, DXN, and TXN” value is reported as > 100 fold; the “RBA ERβ (relative binding affinity)” value turned out to be 2.42 ± 0.62.

As to `COc1cc(O)c(CC=C(C)C)c2c1C(=O)CC(c1ccc(O)cc1)O2` (centres unmarked) [IX, Isoxanthohumol, reference compound], in data set [1], the “RBA ERα (relative binding affinity)” value came to 0.0020 ± 0.0002. In addition, the “RBA ERβ (relative binding affinity)” value in data set [3] is recorded as 0.019 ± 0.004.

Take `C[C@]12CC[C@@H]3c4ccc(O)cc4CC[C@H]3[C@@H]1CC[C@@H]2O` [estradiol, 17β-estradiol, reference compound]: the “induction of PGR expression” value in data set [2] is “statistically significant induction”.

`CC[C@H]1/C=C/C=C/C[C@@H](C)[C@H](O)[C@@](C)(O)C(=O)[C@@H](C)[C@H](O)[C@@H](C)C(=O)[C@@H](C)[C@H](O)[C@@H](C)/C=C/C(=O)O[C@@H]2[C@H](C)[C@H](CC1)O[C@]1(CC[C@H](C)[C@H](C[C@@H](C)O)O1)[C@H]2C` [oligomycin, reference compound]: the “Increase in ECAR” value with C2C12 cells came to 1.6 fold.

As for `CN(CCOc1ccc(CC2SC(=O)NC2=O)cc1)c1ccccn1` (centres unmarked) [rosiglitazone], the “Increased risk of heart attack” value in data set [4] is recorded as 43%.
